Values of other authors in patent publication US20240246943A1, “MULTIFACETED APPROACH TO NOVEL INTERLEUKIN-6 INHIBITORS” (UNIVERSITY OF FLORIDA RESEARCH FOUNDATION, INCORPORATED, priority 2021, published 2024).

Molecular target: T1, extracellular domain of glycoprotein 130 (gp130) (Homo sapiens, UniProt P40189)
T1 sequence (P40189 23-619 limits assumed): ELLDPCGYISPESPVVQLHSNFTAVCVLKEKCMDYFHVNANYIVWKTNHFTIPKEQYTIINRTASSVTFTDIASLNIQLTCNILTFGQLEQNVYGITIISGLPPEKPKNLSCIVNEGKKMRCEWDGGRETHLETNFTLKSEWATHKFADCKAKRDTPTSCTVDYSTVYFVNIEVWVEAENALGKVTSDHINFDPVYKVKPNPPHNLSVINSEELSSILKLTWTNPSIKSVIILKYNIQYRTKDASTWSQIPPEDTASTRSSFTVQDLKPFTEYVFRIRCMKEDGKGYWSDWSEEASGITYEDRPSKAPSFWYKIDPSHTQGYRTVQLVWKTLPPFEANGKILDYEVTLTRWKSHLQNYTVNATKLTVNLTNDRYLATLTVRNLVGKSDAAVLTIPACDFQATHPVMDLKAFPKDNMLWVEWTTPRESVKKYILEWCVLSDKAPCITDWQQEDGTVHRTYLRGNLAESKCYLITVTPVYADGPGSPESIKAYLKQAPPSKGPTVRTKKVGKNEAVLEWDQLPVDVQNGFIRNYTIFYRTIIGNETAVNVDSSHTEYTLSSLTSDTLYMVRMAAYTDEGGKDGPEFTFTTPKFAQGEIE
Conditions: binding to extracellular domain of gp130; literature reference 6; cited from earlier work

## CCCCC1=C(C)C(=O)[C@](C)(CN2c3ccccc3[C@]3(O)CCOC23)C1=O (stereo partly shown) [MDL-A, Madindoline A]
  Kd: 288 µM
